Assay results from US20250188110A1, “SPECIFIC SMALL MOLECULE INHIBITORS THAT BLOCK KMT9 METHYLTRANSFERASE ACTIVITY AND FUNCTION” (ALBERT-LUDWIGS-UNIVERSITÄT FREIBURG, priority 2021, published 2025).
Like-named read-outs stand apart in the source and are kept apart here.

Legend:
[1] = molecular target: T1, KMT9 (Homo sapiens, UniProt Q9Y5N5); assay: Microscale thermophoresis (MST) KMT9 binding
T1 sequence (Q9Y5N5 1-214): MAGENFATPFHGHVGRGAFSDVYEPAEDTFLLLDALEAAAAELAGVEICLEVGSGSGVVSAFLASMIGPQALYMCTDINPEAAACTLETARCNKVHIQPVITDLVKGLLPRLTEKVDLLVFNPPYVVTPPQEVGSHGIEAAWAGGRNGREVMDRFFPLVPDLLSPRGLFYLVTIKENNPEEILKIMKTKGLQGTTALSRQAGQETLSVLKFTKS
T1 sequence (Q9UI30 1-120 isoform Q9UI30-2 partner): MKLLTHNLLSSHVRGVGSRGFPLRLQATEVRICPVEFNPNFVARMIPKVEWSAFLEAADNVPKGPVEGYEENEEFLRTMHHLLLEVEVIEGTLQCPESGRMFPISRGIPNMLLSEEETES
Summary of the method: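 Kd from microscale thermophoresis: compound series against 20 nM His-KMT9 labelled via RED-Tris-NTA, buffer 25 mM HEPES (pH 7.5)/100 mM NaCl/1 mM DTT/0.05% Tween, 40% MST power, 100% LED. Reported as classes: A ≤10 nM, B >10–100 nM, C >100–1000 nM, D >1000 nM.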

[2] = molecular target: T1, KMT9; assay: KMT9 thermal shift assay (SyproOrange); assay type: binding
Summary of the method: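 ΔTm versus DMSO-only control is reported in bins (>20 K, 15–20 K, 10–15 K, ≤10 K), using Tm from Boltzmann sigmoidal fits of SyproOrange melt curves. KMT9 with compound in pH 8.5 BTP buffer containing MgCl2 and DTT was preincubated at 25° C, then ramped 1° C per 15 s up to 95° C.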

[3] = molecular target: T1, KMT9; assay: KMT9 methyltransferase inhibition assay, MTaseGlo luminescence (from entry 155); assay type: biochemical; conditions: 100 nM KMT9, 5 μM ETF1, 1 μM SAM
Summary of the method: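 KMT9 (100 nM final) pre-incubated with inhibitor for 15 min at room temperature, then reacted with 5 μM ETF1 and 1 μM SAM for 2 h at 30° C. at 2% DMSO final. MTaseGlo luminescence read after 60 min detection; IC50 reported in four potency bins.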

[4] = His-tag labelled KMT9 20 nM, read-out: MST (Kd)
[5] = 500 µM compound, 2 μM KMT9, read-out: Thermal shift (ΔTm)
[6] = MTaseGlo procedure (entries from 155), read-out: Inhibition (IC50)
[7] = His-tag labelled KMT9 20 nM, Kd class, read-out: MST
[8] = ΔTm class, 500 uM compound, 2 μM KMT9, read-out: Thermal shift
[9] = IC50 class, MTaseGlo procedure (entries from 155 on), read-out: Inhibition
[10] = microscale thermophoresis, His-tag labelled KMT9 (20 nM), read-out: MST
[11] = ΔTm, 500 µM compound, 2 μM KMT9, 5X SO, read-out: Thermal shift
[12] = from entry 155: MTaseGlo assay, read-out: Inhibition

| Kd [1, 7] | ΔTm at 500 µM [2, 8] | IC50 [3, 9] | SMILES | further results |
| --- | --- | --- | --- | --- |
| – | – | – | Nc1nc(Cl)nc2c1ccn2[C@@H]1C[C@H](c2cccc(CN3CCC3)c2)[C@@H](O)[C@H]1O [Compound 672, (1R,2S,3R,5R)-3-(4-amino-2-chloro-7H-pyrrolo[2,3-d]pyrimidin-7-yl)-5-(3-(azetidin-1-ylmethyl)phenyl)cyclopentane-1,2-diol] | Kd [1, 4]: 10 to 100 nM; ΔTm at 500 µM [2, 5]: 10 to 15 °C; IC50 [3, 6]: 100 to 1000 nM |
| – | – | – | Nc1nc(Cl)nc2c1ccn2[C@@H]1C[C@H](c2cn[nH]c2)[C@@H](O)[C@H]1O [Compound 582, (1R,2S,3R,5R)-3-{4-Amino-2-chloropyrrolo[2,3-d]pyrimidin-7-yl}-5-(1H-pyrazol-4-yl)cyclopentane-1,2-diol] | Kd [1, 4]: 100 to 1000 nM; ΔTm at 500 µM [2, 5]: ≤ 10 °C; IC50 [3, 6]: 1000 to 10000 nM |
| > 1000 nM | 10 to 15 °C | > 10000 nM | Nc1ncnc2c1ccn2[C@@H]1C[C@H](c2ccc(O)cc2)[C@@H](O)[C@H]1O [Compound 405, (1R,2S,3R,5R)-3-(4-amino-7H-pyrrolo[2,3-d]pyrimidin-7-yl)-5-(4-hydroxyphenyl) cyclopentane-1,2-diol] | – |
| 100 to 1000 nM | 10 to 15 °C | 1000 to 10000 nM | CN1CCC=C([C@H]2C[C@@H](n3cc(-c4nc(Cc5ccccc5)cs4)c4cnc(Cl)nc43)[C@H](O)[C@@H]2O)C1 [Compound 585, (1R,2S,3R,5R)-3-[5-(4-Benzyl-1,3-thiazol-2-yl)-2-chloropyrrolo[2,3-d]pyrimidin-7-yl]-5-(1-methyl-5,6-dihydro-2H-pyridin-3-yl)cyclopentane-1,2-diol] | – |
| – | – | – | Nc1nc(Cl)nc2c1c(-c1ccn(Cc3ccccc3)n1)cn2[C@@H]1C[C@H](C2CCNCC2)[C@@H](O)[C@H]1O [Compound 501, (1R,2S,3R,5R)-3-(4-Amino-5-(1-benzyl-1H-pyrazol-3-yl)-2-chloro-7H-pyrrolo[2,3-d]pyrimidin-7-yl)-5-(piperidin-4-yl)cyclopentane-1,2-diol] | Kd [1, 10]: ≤ 10 nM; ΔTm at 500 µM [2, 11]: > 20 °C; IC50 [3, 12]: < 100 nM |
| > 1000 nM | ≤ 10 °C | > 10000 nM | Nc1ncnc2c1ccn2[C@@H]1C[C@H](c2cccc(-c3cncs3)c2)[C@@H](O)[C@H]1O [Compound 653, (1R,2S,3R,5R)-3-(4-amino-7H-pyrrolo[2,3-d]pyrimidin-7-yl)-5-(3-(thiazol-5-yl)phenyl)cyclopentane-1,2-diol] | – |
| > 1000 nM | ≤ 10 °C | > 10000 nM | CN(CCCNCCc1ccc(F)cc1)C[C@H]1C[C@@H](n2cc(-c3ccn(C)n3)c3cnc(Cl)nc32)[C@H](O)[C@@H]1O [Compound 644, (1R,2S,3R,5R)-3-[2-Chloro-5-(1-methylpyrazol-3-yl)pyrrolo[2,3-d]pyrimidin-7-yl]-5-{[(3-{[2-(4-fluorophenyl)ethyl]amino}propyl)(methyl)amino]methyl}cyclopentane-1,2-diol] | – |
| – | – | – | CN1CCC([C@H]2C[C@@H](n3cc(-c4ccn(Cc5ccccc5)n4)c4c(N)nc(Cl)nc43)[C@H](O)[C@@H]2O)CC1 [Compound 502, (1R,2S,3R,5R)-3-(4-amino-5-(1-benzyl-1H-pyrazol-3-yl)-2-chloro-7H-pyrrolo[2,3-d]pyrimidin-7-yl)-5-(1-methylpiperidin-4-yl)cyclopentane-1,2-diol] | Kd [1, 10]: ≤ 10 nM; ΔTm at 500 µM [2, 11]: > 20 °C; IC50 [3, 12]: 100 to 1000 nM |
| > 1000 nM | ≤ 10 °C | > 10000 nM | O[C@@H]1[C@H](O)[C@@H](C2CCN(CC(F)(F)F)CC2)C[C@H]1n1cc(-c2nc(Cc3ccccc3)cs2)c2cnc(Cl)nc21 [Compound 499, (1R,2S,3R,5R)-3-(5-(4-Benzylthiazol-2-yl)-2-chloro-7H-pyrrolo[2,3-d]pyrimidin-7-yl)-5-(1-(2,2,2-trifluoroethyl)piperidin-4-yl)cyclopentane-1,2-diol] | – |
| 10 to 100 nM | > 20 °C | 100 to 1000 nM | Nc1nc(Cl)nc2c1c(-c1nc(Cc3ccccc3)cs1)cn2[C@@H]1C[C@H](CNCCCNCCc2ccc(F)cc2)[C@@H](O)[C@H]1O [Compound 646, (1R,2S,3R,5R)-3-(4-Amino-5-(4-benzylthiazol-2-yl)-2-chloro-7H-pyrrolo[2,3-d]pyrimidin-7-yl)-5-(((3-((4-fluorophenethyl)amino)propyl)amino)methyl)cyclopentane-1,2-diol] | – |
| > 1000 nM | ≤ 10 °C | > 10000 nM | Nc1ncnc2c1ccn2[C@@H]1C[C@H](c2cccc(-c3cccnc3)c2)[C@@H](O)[C@H]1O [Compound 649, (1R,2S,3R,5R)-3-(4-amino-7H-pyrrolo[2,3-d]pyrimidin-7-yl)-5-(3-(pyridin-3-yl)phenyl)cyclopentane-1,2-diol] | – |
| > 1000 nM | ≤ 10 °C | > 10000 nM | Nc1ncnc2c1ccn2[C@@H]1C[C@H](c2cccc(O)c2)[C@@H](O)[C@H]1O [Compound 404, (1R,2S,3R,5R)-3-(4-amino-7H-pyrrolo[2,3-d]pyrimidin-7-yl)-5-(3-hydroxyphenyl) cyclopentane-1,2-diol] | – |
| – | – | – | Nc1ncnc2c1c(-c1nccs1)cn2[C@@H]1C[C@H](c2cc(Cl)cc(Cl)c2)[C@@H](O)[C@H]1O [Compound 394, (1R,2S,3R,5R)-3-(4-amino-5-(thiazol-2-yl)-7H-pyrrolo[2,3-d]pyrimidin-7-yl)-5-(3,5-dichlorophenyl) cyclo-pentane-1,2-diol] | Kd [1, 10]: > 1000 nM; ΔTm at 500 µM [2, 11]: ≤ 10 °C; IC50 [3, 12]: > 10000 nM |
| – | – | – | CN1CCC[C@H]([C@H]2C[C@@H](n3cc(-c4nc(Cc5ccccc5)cs4)c4c(N)nc(Cl)nc43)[C@H](O)[C@@H]2O)C1 [Compound 597R, (1R,2S,3R,5R)-3-(4-Amino-5-(4-benzylthiazol-2-yl)-2-chloro-7H-pyrrolo[2,3-d]pyrimidin-7-yl)-5-((R)-1-methylpiperidin-3-yl)cyclopentane-1,2-diol] | Kd [1, 4]: ≤ 10 nM; ΔTm at 500 µM [2, 5]: 15 to 20 °C; IC50 [3, 6]: 100 to 1000 nM |
| > 1000 nM | ≤ 10 °C | > 10000 nM | O[C@@H]1[C@H](O)[C@@H](C2CCCN(CC(F)(F)F)C2)C[C@H]1n1cc(-c2nc(Cc3ccccc3)cs2)c2cnc(Cl)nc21 (stereo partly drawn) [Compound 517, (1R,2S,3R,5R)-3-(5-(4-benzylthiazol-2-yl)-2-chloro-7H-pyrrolo[2,3-d]pyrimidin-7-yl)-5-(1-(2,2,2-trifluoroethyl)-313-piperidin-3-yl)cyclopentane-1,2-diol] | – |
| ≤ 10 nM | > 20 °C | 100 to 1000 nM | CN1CCC([C@H]2C[C@@H](n3cc(-c4nc(Cc5ccccc5)cs4)c4c(N)nc(Cl)nc43)[C@H](O)[C@@H]2O)CC1 [Compound 505, (1R,2S,3R,5R)-3-(4-amino-5-(4-benzylthiazol-2-yl)-2-chloro-7H-pyrrolo[2,3-d]pyrimidin-7-yl)-5-(1-methylpiperidin-4-yl)cyclopentane-1,2-diol] | – |
| – | – | – | Cn1ccc(-c2cn([C@@H]3C[C@H](c4cccc(CN5CCC5)c4)[C@@H](O)[C@H]3O)c3nc(Cl)nc(N)c23)n1 [Compound 674, (1R,2S,3R,5R)-3-(4-amino-2-chloro-5-(1-methyl-1H-pyrazol-3-yl)-7H-pyrrolo[2,3-d]pyrimidin-7-yl)-5-(3-(azetidin-1-ylmethyl)phenyl)cyclopentane-1,2-diol] | Kd [1, 4]: ≤ 10 nM; ΔTm at 500 µM [2, 5]: 15 to 20 °C; IC50 [3, 6]: 100 to 1000 nM |
